Legend:
D(2) dopamine receptor = D(2) dopamine receptor (Rattus norvegicus, UniProt P61169); assay: Binding affinity at dopamine D2 receptor by [3H]spiperone displacement.
[1] = biological target: Serotonin 2 (5-HT2) receptor (Rattus norvegicus, UniProt P30994+P08909+P14842); assay: Binding affinity at serotonin 5-hydroxytryptamine 2 receptor by [3H]ketanserin displacement.; type: protein assay

Sequence of D(2) dopamine receptor (P61169 whole entry): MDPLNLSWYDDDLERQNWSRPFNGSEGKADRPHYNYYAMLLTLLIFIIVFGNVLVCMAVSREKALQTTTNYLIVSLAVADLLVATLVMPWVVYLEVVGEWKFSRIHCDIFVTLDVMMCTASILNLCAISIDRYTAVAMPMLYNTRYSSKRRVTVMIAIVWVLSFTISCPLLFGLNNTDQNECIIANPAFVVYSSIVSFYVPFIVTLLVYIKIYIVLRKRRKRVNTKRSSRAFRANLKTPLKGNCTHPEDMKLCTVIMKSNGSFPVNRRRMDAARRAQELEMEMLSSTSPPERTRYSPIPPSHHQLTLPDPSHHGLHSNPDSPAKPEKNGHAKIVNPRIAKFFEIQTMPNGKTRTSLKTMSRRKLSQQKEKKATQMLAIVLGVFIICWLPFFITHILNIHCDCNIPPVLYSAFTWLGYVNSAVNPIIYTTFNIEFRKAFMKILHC

IC50 [1] [nM] | SMILES | IC50 (D(2) dopamine receptor; read-out: IC50) [nM] | also measured
 | CN1CCC(=C2c3ccccc3C=Cc3ccccc32)CC1 [CYPROHEPTADINE] |  | IC50 (D(2) dopamine receptor): 140 nM
2.6 | O=C1NCCN1CCN1CCN([C@@H]2C[C@@H](c3ccc(F)cc3)c3cc(Cl)ccc32)CC1 |  | 
2.6 | CN1CCC(=C2c3ccccc3C(O)c3ccccc32)CC1 (stereo not drawn) | 1600 | 
 | CN1CCC(=C2c3ccccc3C=Cc3ccc(Br)cc32)CC1 |  | Ki (D(2) dopamine receptor): 4 nM
3.1 | OCCN1CCN([C@@H]2C[C@@H](c3ccc(F)cc3)c3ccc(C(F)(F)F)cc32)CC1 [TEFLUDAZINE] |  | 

SMILES | IC50 [1] [nM] | IC50 (D(2) dopamine receptor; read-out: IC50) [nM] | also measured
O=C1NCCN1CCN1CC=C(c2cn(-c3ccc(F)cc3)c3ccccc23)CC1 | 1.7 | 5.1 | 

From ChEMBL document CHEMBL1127838, “Development of a receptor-interaction model for serotonin 5-HT2 receptor antagonists. Predicting selectivity with respect to dopamine D2 receptors” (J Med Chem, 1994)
